Measured values from PubChem BioAssay (NCI).
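These data come from cells grown in 96-well plates and exposed to compound for 48 hours at five concentrations. GI50 marks 50% less growth. TGI is the concentration that stops growth completely.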

Tests used:
Assay in all cases: inhibition of tumour cell growth, NCI panel, 48 h
DU-145 prostate = tested on: DU-145 prostate
HL-60(TB) leukemia = tested on: HL-60(TB) leukemia
OVCAR-5 ovarian = tested on: OVCAR-5 ovarian
MDA-MB-231 breast = tested on: MDA-MB-231 breast
NCI-H522 lung = tested on: NCI-H522 lung
HOP-92 NSCLC = tested on: HOP-92 NSCLC
NCI-H23 lung = tested on: NCI-H23 lung
CAKI-1 renal = tested on: CAKI-1 renal
SNB-19 CNS = tested on: SNB-19 CNS
EKVX NSCLC = tested on: EKVX NSCLC
KM12 colon = tested on: KM12 colon
PC-3 prostate = tested on: PC-3 prostate
RPMI-8226 leukemia = tested on: RPMI-8226 leukemia
SK-MEL-28 melanoma = tested on: SK-MEL-28 melanoma
U251 CNS = tested on: U251 CNS
MOLT-4 leukemia = tested on: MOLT-4 leukemia
ACHN renal = tested on: ACHN renal
HOP-62 NSCLC = tested on: HOP-62 NSCLC
MCF7 breast = tested on: MCF7 breast
LOX IMVI melanoma = tested on: LOX IMVI melanoma
SK-OV-3 ovarian = tested on: SK-OV-3 ovarian
NCI/ADR-RES ovarian = tested on: NCI/ADR-RES ovarian
OVCAR-4 ovarian = tested on: OVCAR-4 ovarian
SF-268 CNS = tested on: SF-268 CNS
A549 NSCLC = tested on: A549 NSCLC
A498 renal = tested on: A498 renal
SN12C renal = tested on: SN12C renal
COLO 205 colon = tested on: COLO 205 colon
UACC-62 melanoma = tested on: UACC-62 melanoma
SF-539 CNS = tested on: SF-539 CNS
BT-549 breast = tested on: BT-549 breast
HT29 colon = tested on: HT29 colon
NCI-H226 lung = tested on: NCI-H226 lung
M14 melanoma = tested on: M14 melanoma
786-0 renal = tested on: 786-0 renal
RXF 393 renal = tested on: RXF 393 renal
SK-MEL-5 melanoma = tested on: SK-MEL-5 melanoma
TK-10 renal = tested on: TK-10 renal
SW-620 colon = tested on: SW-620 colon
T-47D breast = tested on: T-47D breast
MALME-3M melanoma = tested on: MALME-3M melanoma
SK-MEL-2 melanoma = tested on: SK-MEL-2 melanoma
UACC-257 melanoma = tested on: UACC-257 melanoma
NCI-H460 lung = tested on: NCI-H460 lung
HCT-116 colon = tested on: HCT-116 colon
MDA-MB-435 = tested on: MDA-MB-435
OVCAR-3 ovarian = tested on: OVCAR-3 ovarian
UO-31 renal = tested on: UO-31 renal
HCC-2998 colon = tested on: HCC-2998 colon
SNB-75 CNS = tested on: SNB-75 CNS
CCRF-CEM leukemia = tested on: CCRF-CEM leukemia
SF-295 CNS = tested on: SF-295 CNS
HS 578T breast = tested on: HS 578T breast
IGROV1 ovarian = tested on: IGROV1 ovarian
OVCAR-8 ovarian = tested on: OVCAR-8 ovarian
HCT-15 colon = tested on: HCT-15 colon

How did the GI50 (DU-145 prostate) turn out when `Oc1ccccc1-c1nc2c3ccccc3c3ccccc3c2[nH]1` was run?
The GI50 was 13.6 µM.

And the TGI (DU-145 prostate)?
Its TGI is 26.5 µM.

And the GI50 (HL-60(TB) leukemia)?
Its GI50 is 3.66 µM.

What about the TGI (HL-60(TB) leukemia) of the same molecule?
Its TGI is 14.9 µM.

And the GI50 (OVCAR-5 ovarian)?
Its GI50 is 15 µM.

And the TGI (OVCAR-5 ovarian)?
Its TGI is 28.3 µM.

What about the GI50 (MDA-MB-231 breast) of the same molecule?
The GI50 was 1.96 µM.

What about the TGI (MDA-MB-231 breast) of the same molecule?
Its TGI is 4.44 µM.

What about the GI50 (NCI-H522 lung) of the same molecule?
Its GI50 is 3.07 µM.

And the TGI (NCI-H522 lung)?
The TGI was 10.3 µM.

And the GI50 (HOP-92 NSCLC)?
The GI50 was 1.55 µM.

What about the TGI (HOP-92 NSCLC) of the same molecule?
The TGI was 6.48 µM.

And the GI50 (NCI-H23 lung)?
Its GI50 is 9.84 µM.

What about the TGI (NCI-H23 lung) of the same molecule?
Its TGI is 22.3 µM.

And the GI50 (CAKI-1 renal)?
The GI50 was 1.67 µM.

And the TGI (CAKI-1 renal)?
The TGI was 9.44 µM.

What about the GI50 (SNB-19 CNS) of the same molecule?
The GI50 was 12.4 µM.

What about the TGI (SNB-19 CNS) of the same molecule?
Its TGI is 24.9 µM.

What about the GI50 (EKVX NSCLC) of the same molecule?
Its GI50 is 4.33 µM.

And the TGI (EKVX NSCLC)?
The TGI was 20.6 µM.

What about the GI50 (KM12 colon) of the same molecule?
The GI50 was 4.32 µM.

What about the TGI (KM12 colon) of the same molecule?
Its TGI is 14.1 µM.

What about the GI50 (PC-3 prostate) of the same molecule?
Its GI50 is 3.49 µM.

And the TGI (PC-3 prostate)?
The TGI was 14.8 µM.

What about the GI50 (RPMI-8226 leukemia) of the same molecule?
Its GI50 is 1.93 µM.

What about the TGI (RPMI-8226 leukemia) of the same molecule?
Its TGI is 14.4 µM.

And the GI50 (SK-MEL-28 melanoma)?
Its GI50 is 14.4 µM.

What about the TGI (SK-MEL-28 melanoma) of the same molecule?
Its TGI is 27.4 µM.

What about the GI50 (U251 CNS) of the same molecule?
The GI50 was 10.5 µM.

And the TGI (U251 CNS)?
The TGI was 22.2 µM.

And the GI50 (MOLT-4 leukemia)?
The GI50 was 2.76 µM.

What about the TGI (MOLT-4 leukemia) of the same molecule?
The TGI was 10.7 µM.

What about the GI50 (ACHN renal) of the same molecule?
Its GI50 is 4.26 µM.

And the TGI (ACHN renal)?
Its TGI is 15.6 µM.

And the GI50 (HOP-62 NSCLC)?
Its GI50 is 3.93 µM.

What about the TGI (HOP-62 NSCLC) of the same molecule?
Its TGI is 15 µM.

What about the GI50 (MCF7 breast) of the same molecule?
The GI50 was 1.99 µM.

And the TGI (MCF7 breast)?
The TGI was 13.4 µM.

And the GI50 (LOX IMVI melanoma)?
The GI50 was 3.48 µM.

And the TGI (LOX IMVI melanoma)?
Its TGI is 12 µM.

And the GI50 (SK-OV-3 ovarian)?
Its GI50 is 8.68 µM.

What about the TGI (SK-OV-3 ovarian) of the same molecule?
Its TGI is 23.7 µM.

What about the GI50 (NCI/ADR-RES ovarian) of the same molecule?
Its GI50 is 8.43 µM.

What about the TGI (NCI/ADR-RES ovarian) of the same molecule?
Its TGI is 25.6 µM.

What about the GI50 (OVCAR-4 ovarian) of the same molecule?
The GI50 was 12.7 µM.

What about the TGI (OVCAR-4 ovarian) of the same molecule?
The TGI was 25.3 µM.

What about the GI50 (SF-268 CNS) of the same molecule?
The GI50 was 10.6 µM.

What about the TGI (SF-268 CNS) of the same molecule?
The TGI was 22.6 µM.

What about the GI50 (A549 NSCLC) of the same molecule?
The GI50 was 6.08 µM.

What about the TGI (A549 NSCLC) of the same molecule?
The TGI was 17.9 µM.

And the GI50 (A498 renal)?
Its GI50 is 12.2 µM.

And the TGI (A498 renal)?
The TGI was 24.6 µM.

And the GI50 (SN12C renal)?
The GI50 was 10.7 µM.

And the TGI (SN12C renal)?
The TGI was 22.6 µM.

And the GI50 (COLO 205 colon)?
The GI50 was 10.8 µM.

What about the TGI (COLO 205 colon) of the same molecule?
The TGI was 22.7 µM.

What about the GI50 (UACC-62 melanoma) of the same molecule?
Its GI50 is 3.1 µM.

And the TGI (UACC-62 melanoma)?
Its TGI is 12.4 µM.

And the GI50 (SF-539 CNS)?
The GI50 was 9.28 µM.

And the TGI (SF-539 CNS)?
The TGI was 21.2 µM.

What about the GI50 (BT-549 breast) of the same molecule?
The GI50 was 9.06 µM.

And the TGI (BT-549 breast)?
Its TGI is 21.7 µM.

And the GI50 (HT29 colon)?
The GI50 was 14 µM.

And the TGI (HT29 colon)?
Its TGI is 27 µM.

What about the GI50 (NCI-H226 lung) of the same molecule?
Its GI50 is 7.85 µM.

What about the TGI (NCI-H226 lung) of the same molecule?
Its TGI is 20.9 µM.

What about the GI50 (M14 melanoma) of the same molecule?
Its GI50 is 11.7 µM.

What about the TGI (M14 melanoma) of the same molecule?
The TGI was 24 µM.

And the GI50 (786-0 renal)?
The GI50 was 4.67 µM.

And the TGI (786-0 renal)?
The TGI was 13.6 µM.

What about the GI50 (RXF 393 renal) of the same molecule?
Its GI50 is 6.23 µM.

And the TGI (RXF 393 renal)?
Its TGI is 18.8 µM.

What about the GI50 (SK-MEL-5 melanoma) of the same molecule?
The GI50 was 12.1 µM.

What about the TGI (SK-MEL-5 melanoma) of the same molecule?
Its TGI is 24.4 µM.

What about the GI50 (TK-10 renal) of the same molecule?
Its GI50 is 9.26 µM.

What about the TGI (TK-10 renal) of the same molecule?
The TGI was 20.8 µM.

What about the GI50 (SW-620 colon) of the same molecule?
The GI50 was 10.6 µM.

What about the TGI (SW-620 colon) of the same molecule?
The TGI was 22.4 µM.

And the GI50 (T-47D breast)?
Its GI50 is 1.89 µM.

What about the TGI (T-47D breast) of the same molecule?
Its TGI is 12.8 µM.

What about the GI50 (MALME-3M melanoma) of the same molecule?
The GI50 was 16.2 µM.

What about the TGI (MALME-3M melanoma) of the same molecule?
The TGI was 31.7 µM.

What about the GI50 (SK-MEL-2 melanoma) of the same molecule?
The GI50 was 5.16 µM.

What about the TGI (SK-MEL-2 melanoma) of the same molecule?
Its TGI is 16.7 µM.

And the GI50 (UACC-257 melanoma)?
Its GI50 is 14.1 µM.

And the TGI (UACC-257 melanoma)?
The TGI was 27.1 µM.

And the GI50 (NCI-H460 lung)?
The GI50 was 3.39 µM.

And the TGI (NCI-H460 lung)?
Its TGI is 12.1 µM.

What about the GI50 (HCT-116 colon) of the same molecule?
Its GI50 is 10.5 µM.

What about the TGI (HCT-116 colon) of the same molecule?
The TGI was 22.3 µM.

And the GI50 (MDA-MB-435)?
Its GI50 is 6.23 µM.

And the TGI (MDA-MB-435)?
Its TGI is 18.7 µM.

And the GI50 (OVCAR-3 ovarian)?
Its GI50 is 11.1 µM.

What about the TGI (OVCAR-3 ovarian) of the same molecule?
Its TGI is 23.1 µM.

And the GI50 (UO-31 renal)?
Its GI50 is 2.28 µM.

And the TGI (UO-31 renal)?
The TGI was 14.6 µM.

What about the GI50 (HCC-2998 colon) of the same molecule?
The GI50 was 4.13 µM.

What about the TGI (HCC-2998 colon) of the same molecule?
The TGI was 12.1 µM.

And the GI50 (SNB-75 CNS)?
Its GI50 is 2.53 µM.

What about the TGI (SNB-75 CNS) of the same molecule?
Its TGI is 15.2 µM.

What about the GI50 (CCRF-CEM leukemia) of the same molecule?
Its GI50 is 4.6 µM.

And the TGI (CCRF-CEM leukemia)?
Its TGI is 16.8 µM.

And the GI50 (SF-295 CNS)?
Its GI50 is 10.4 µM.

What about the TGI (SF-295 CNS) of the same molecule?
The TGI was 22.2 µM.

And the GI50 (HS 578T breast)?
The GI50 was 12.4 µM.

And the TGI (HS 578T breast)?
Its TGI is 29.7 µM.

And the GI50 (IGROV1 ovarian)?
Its GI50 is 0.0614 µM.

And the TGI (IGROV1 ovarian)?
Its TGI is 14.4 µM.

What about the GI50 (OVCAR-8 ovarian) of the same molecule?
Its GI50 is 12.1 µM.

What about the TGI (OVCAR-8 ovarian) of the same molecule?
Its TGI is 24.5 µM.

And the GI50 (HCT-15 colon)?
The GI50 was 5.31 µM.

And the TGI (HCT-15 colon)?
The TGI was 17.9 µM.
